Structures can show the parent of a compound that is named as a salt. Where two headings read alike, the source gives them in different places.
Experiments:
[1] = test system: THP-1 cells; test: Measurement of IL-1β production, hTRF protocol (second alternative procedure), THP-1 cells; assay type: cell-based, human; details: Homo sapiens, THP-1, IL-1β production, read-out: NLRP3 hILIB EC50
Outline: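 Compounds, dilution series starting at a final 10 μM, were incubated 2 hours at 37° C with PMA-differentiated THP-1 cells (50 ng/ml overnight; 50,000 cells/well, 2% FBS RPMI). Released IL-1β quantified in supernatant by hTRF kit with 1:40 antibody dilution, 4° C overnight, 665/615 nm ratio.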

[2] = molecular target: T1, TLR7 (Homo sapiens, UniProt Q9NYK1); test: In vitro human TLR7 binding reporter assay (HEK-Blue, NF-kB/AP1-inducible SEAP); assay type: cell-based; details: read-out: TLR7 Agonist EC50
T1 construct: human HEK-Blue cells co-expressing a TLR7 or TLR8 gene
T1 sequence (Q9NYK1 27-1049): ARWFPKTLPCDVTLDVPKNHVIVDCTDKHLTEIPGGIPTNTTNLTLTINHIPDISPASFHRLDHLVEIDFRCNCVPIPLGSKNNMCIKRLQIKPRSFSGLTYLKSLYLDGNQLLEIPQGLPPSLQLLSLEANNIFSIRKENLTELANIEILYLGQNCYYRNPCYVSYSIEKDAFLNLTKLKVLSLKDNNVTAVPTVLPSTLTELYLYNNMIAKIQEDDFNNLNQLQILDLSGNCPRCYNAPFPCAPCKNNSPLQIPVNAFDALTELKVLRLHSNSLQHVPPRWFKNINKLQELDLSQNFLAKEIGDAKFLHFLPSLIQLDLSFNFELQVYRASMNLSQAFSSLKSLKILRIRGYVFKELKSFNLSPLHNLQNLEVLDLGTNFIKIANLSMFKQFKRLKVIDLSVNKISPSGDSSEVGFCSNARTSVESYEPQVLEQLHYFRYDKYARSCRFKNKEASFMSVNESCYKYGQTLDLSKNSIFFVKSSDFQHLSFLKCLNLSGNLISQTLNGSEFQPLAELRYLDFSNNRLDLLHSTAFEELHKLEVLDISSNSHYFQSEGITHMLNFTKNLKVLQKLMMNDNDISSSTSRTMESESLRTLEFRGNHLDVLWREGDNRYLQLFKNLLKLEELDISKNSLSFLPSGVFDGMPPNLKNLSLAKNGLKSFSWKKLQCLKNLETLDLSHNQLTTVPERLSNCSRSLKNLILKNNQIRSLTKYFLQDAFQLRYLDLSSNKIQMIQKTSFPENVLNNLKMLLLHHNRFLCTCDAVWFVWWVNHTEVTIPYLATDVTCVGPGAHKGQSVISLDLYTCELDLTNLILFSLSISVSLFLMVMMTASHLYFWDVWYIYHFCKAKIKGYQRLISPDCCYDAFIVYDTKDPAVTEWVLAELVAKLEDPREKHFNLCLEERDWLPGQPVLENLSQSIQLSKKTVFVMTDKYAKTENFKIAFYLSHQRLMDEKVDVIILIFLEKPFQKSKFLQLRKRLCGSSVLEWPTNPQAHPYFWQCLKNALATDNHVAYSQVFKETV
Outline: (§1)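 EC50s come from NF-kB/AP1-driven SEAP secretion in HEK-Blue cells expressing TLR7 or TLR8, measured with Quanti-Blue after an 18 h compound incubation. Maximal response is defined by a 50 μM reference standard.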

[3] = molecular target: T2, TLR8 (Homo sapiens, UniProt Q9NR97); test: In vitro human TLR8 binding reporter assay (HEK-Blue, NF-kB/AP1-inducible SEAP); assay type: cell-based; details: read-out: TLR8 Agonist EC50
T2 construct: human HEK-Blue cells co-expressing a TLR7 or TLR8 gene
T2 sequence (Q9NR97 27-1041): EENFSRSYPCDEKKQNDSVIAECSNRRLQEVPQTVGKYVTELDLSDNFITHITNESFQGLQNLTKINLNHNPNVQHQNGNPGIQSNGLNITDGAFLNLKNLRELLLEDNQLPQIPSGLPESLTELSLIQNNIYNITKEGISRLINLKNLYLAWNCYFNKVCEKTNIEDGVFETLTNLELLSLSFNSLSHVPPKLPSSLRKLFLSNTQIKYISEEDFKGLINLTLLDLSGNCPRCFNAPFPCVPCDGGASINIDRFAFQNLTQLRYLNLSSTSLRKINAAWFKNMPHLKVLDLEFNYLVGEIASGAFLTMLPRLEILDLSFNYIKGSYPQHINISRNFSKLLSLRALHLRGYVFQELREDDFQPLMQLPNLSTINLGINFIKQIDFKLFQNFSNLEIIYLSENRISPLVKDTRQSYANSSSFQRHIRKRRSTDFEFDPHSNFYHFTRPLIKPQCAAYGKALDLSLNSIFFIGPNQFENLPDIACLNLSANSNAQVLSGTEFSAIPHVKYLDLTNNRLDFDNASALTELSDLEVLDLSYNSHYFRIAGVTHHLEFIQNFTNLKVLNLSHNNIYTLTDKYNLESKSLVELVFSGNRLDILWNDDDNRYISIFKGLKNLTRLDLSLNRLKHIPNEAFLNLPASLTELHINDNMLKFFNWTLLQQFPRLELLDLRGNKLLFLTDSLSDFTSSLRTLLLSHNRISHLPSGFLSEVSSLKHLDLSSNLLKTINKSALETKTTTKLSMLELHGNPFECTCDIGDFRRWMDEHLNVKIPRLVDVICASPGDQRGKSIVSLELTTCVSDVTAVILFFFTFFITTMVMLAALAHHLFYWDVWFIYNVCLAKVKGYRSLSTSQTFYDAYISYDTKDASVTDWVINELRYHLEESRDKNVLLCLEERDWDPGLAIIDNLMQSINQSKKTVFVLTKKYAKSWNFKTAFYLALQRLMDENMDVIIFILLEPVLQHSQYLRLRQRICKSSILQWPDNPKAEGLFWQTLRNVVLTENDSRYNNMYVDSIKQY
Outline: as §1

Compound | EC50 ([1]; human cells) [µM] | EC50 ([2]; activity range) [µM] | EC50 ([3]; activity range) [µM] | EC50 ([1]; human) [µM] | EC50 ([2]; activity range class) [µM] | EC50 ([3]; activity range class) [µM]
Nc1nc2cc(-c3cc[nH]n3)ccc2c2cn(CC(=O)NC3CCC3)nc12 [Example 548] | 0.78 | > 100 | > 100 | – | – | –
Nc1nc2cc(-c3cc[nH]n3)ccc2c2[nH]c(CCNC(=O)c3csc(Cl)n3)cc12 [Example 485] | 0.08 | > 100 | > 100 | – | – | –
CC(CC(=O)NCC1CCOCC1)n1cc2c(N)nc3cc(-c4cc[nH]n4)ccc3c2n1 (stereo not drawn) [Example 624] | 19.9 | > 100 | > 100 | – | – | –
Cc1nc(C(=O)NCCc2cc3c(N)nc4cc(-c5cc[nH]n5)ccc4c3[nH]2)cs1 [Example 495] | 0.45 | > 100 | > 100 | – | – | –
Nc1nc2cc(-c3cc[nH]n3)ccc2c2nn(C[C@@H]3CC(F)(F)CN3)cc12 [Example 363] | – | – | – | 1.84 | > 100 | > 100
COCCNC(=O)C(C)n1cc2c(N)nc3cc(-c4ccn[nH]4)ccc3c2n1 (stereo not drawn) [Example 581] | 3.17 | > 100 | > 100 | – | – | –
Nc1nc2cc(-n3cccn3)ccc2c2cn(CC3CCCO3)nc12 (stereo not drawn) [Example 17] | – | – | – | 2.2 | 20 to 100 | > 100
C[C@H](O)Cn1cc2c(N)nc3cc(-c4cc[nH]n4)ccc3c2n1 [Example 369] | – | – | – | 0.19 | > 100 | > 100
Cc1cccc(OCCCn2cc3c(n2)c(N)nc2cc(-c4cc[nH]n4)ccc23)c1 [Example 8] | – | – | – | 0.89 | > 100 | > 100
Nc1nc2cc(-c3ccn[nH]3)ccc2c2cn(CCF)nc12 [Example 193] | – | – | – | 0.24 | 20 to 100 | 20 to 100
COC1CN(Cc2cc3c(N)nc4cc(-c5cc[nH]n5)ccc4c3[nH]2)C1 [Example 479] | 0.08 | > 100 | > 100 | – | – | –
Nc1nc2cc(-c3ccn[nH]3)ccc2c2nn(CCNC(=O)c3ccccn3)nc12 [Example 159] | – | – | – | 0.68 | > 100 | > 100
Nc1nc2cc(-c3cc[nH]n3)ccc2c2cn(CC(=O)Nc3ccccn3)nc12 [Example 28] | – | – | – | 1.31 | > 100 | > 100
CCN(Cc1[nH]c2c(c(N)nc3cc(-c4cc[nH]n4)ccc32)c1C)C(C)=O [Example 470] | 15.3 | > 100 | > 100 | – | – | –
Nc1nc2cc(-n3cccn3)ccc2c2nn(CCc3c[nH]cn3)cc12 [Example 391] | – | – | – | 0.2 | > 100 | > 100
Nc1nc2cc(-c3cc[nH]n3)ccc2c2nn(Cc3cccnn3)cc12 [Example 360] | – | – | – | 0.11 | > 100 | > 100
CC(C)(CO)Cn1cc2c(N)nc3cc(-c4cc[nH]n4)ccc3c2n1 [Example 313] | – | – | – | 0.26 | > 100 | > 100
Nc1nc2cc(-c3ccn[nH]3)ccc2c2[nH]c(CC3CCCO3)cc12 (stereo not drawn) [Example 156, 2-[(oxolan-2-yl)methyl]-7-(1H-pyrazol-5-yl)-1H-pyrrolo[3,2-c]quinolin-4-amine] | – | – | – | 0.31 | > 100 | > 100

Compound | EC50 ([1]; human cells) [µM] | EC50 ([2]; activity range) [µM] | EC50 ([3]; activity range) [µM] | EC50 ([1]; human) [µM] | EC50 ([2]; activity range class) [µM] | EC50 ([3]; activity range class) [µM]
CC(C)(CCO)n1cc2c(N)nc3cc(-c4cc[nH]n4)ccc3c2n1 [Example 410, 3-(4-amino-7-(1H-pyrazol-3-yl)-2H-pyrazolo[4,3-c]quinolin-2-yl)-3-methylbutan-1-ol, TFA] | 0.33 | > 100 | > 100 | – | – | –
CS(=O)(=O)CCn1cc2c(n1)c(N)nc1cc(-c3cc[nH]n3)ccc12 [Example 170] | – | – | – | 1.98 | > 100 | > 100
Nc1nc2cc(-c3cc[nH]n3)ccc2c2c1cnn2CCOCCO [Example 233] | – | – | – | 1.44 | > 100 | > 100
CC(C(=O)NCc1ccccn1)n1cc2c(N)nc3cc(-c4ccn[nH]4)ccc3c2n1 (stereo not drawn) [Example 563] | 9.21 | > 100 | > 100 | – | – | –
Nc1nc2cc(-c3ccn[nH]3)ccc2c2nn(CC3(C(=O)NCC(F)F)CC3)cc12 [Example 606] | 2.46 | > 100 | > 100 | – | – | –
CC[C@@H](O)Cn1cc2c(N)nc3cc(-c4cc[nH]n4)ccc3c2n1 [Example 368] | – | – | – | 0.52 | > 100 | > 100
C[C@H](CO)Cn1cc2c(N)nc3cc(-c4cc[nH]n4)ccc3c2n1 [Example 308] | – | – | – | 0.41 | > 100 | > 100
Nc1nc2cc(-n3cccn3)ccc2c2nn(C[C@@H](O)CO)cc12 [Example 389] | – | – | – | 0.91 | > 100 | > 100
CCn1c(CN)cc2c(N)nc3cc(-c4ccn[nH]4)ccc3c21 [Example 441] | 1.33 | > 100 | > 100 | – | – | –
CC(CC(=O)NCC(F)F)n1cc2c(N)nc3cc(-c4cc[nH]n4)ccc3c2n1 (stereo not drawn) [Example 618] | 14.5 | > 100 | > 100 | – | – | –
CCn1c(CNC(C)=O)cc2c(N)nc3cc(-n4cccn4)ccc3c21 [Example 448] | 1.78 | > 100 | > 100 | – | – | –
Nc1nc2cc(-c3ccn[nH]3)ccc2c2nn(CCNS(=O)(=O)N3CCOCC3)cc12 [Example 593] | 28.1 | > 100 | > 100 | – | – | –
CC(Cn1cc2c(N)nc3cc(-c4ccn[nH]4)ccc3c2n1)NC(=O)C(C)(C)C#N (stereo not drawn) [Example 270] | – | – | – | 5.18 | > 100 | > 100
Nc1nc2cc(-c3cc[nH]n3)ccc2c2cn(CCNC(=O)c3ccc(C(F)(F)F)cn3)nc12 [Example 62] | – | – | – | 0.28 | 20 to 100 | > 100
Nc1nc2cc(-n3cccn3)ccc2c2nn(CC(F)F)cc12 [Example 390] | – | – | – | 0.35 | > 100 | > 100
Cc1ccc(C(=O)NCCn2cc3c(n2)c(N)nc2cc(-c4cc[nH]n4)ccc23)nc1 [Example 94] | – | – | – | 0.21 | > 100 | 20 to 100
CC(C)(C)OC(=O)NCCn1cc2c(n1)c(N)nc1cc(-c3cc[nH]n3)ccc12 [Example 118, tert-butyl N-{2-[4-amino-7-(1H-pyrazol-3-yl)-2H-pyrazolo[3,4-c]quinolin-2-yl]ethyl}carbamate] | – | – | – | 0.86 | > 100 | > 100

Reference: patent US12037344B2, “NLRP3 modulators” (INNATE TUMOR IMMUNITY, INC., priority 2018, dated 2024)
